Assay results as given in ChEMBL document CHEMBL1955803, “Preclinical in vivo evaluation of efficacy, pharmacokinetics, and pharmacodynamics of a novel MEK1/2 kinase inhibitor RO5068760 in multiple tumor models” (Mol Cancer Ther, 2010).
Active and inactive are the calls of the source. The rule behind the calls is not given here.

What was measured:
HT-29 = test: Antitumor activity against human HT-29 cells expressing B-Raf V600E mutant xenografted in nude mouse assessed as tumor growth inhibition at 25 mg/kg, po bid; format: functional; settings: read-out: GI
Mus musculus [1] = test: Average drug concentration in human HT-29 cells expressing B-Raf V600E mutant xenografted nude mouse plasma at 100 mg/kg, po bid; format: ADME, organism-based; set-up: dose 100 mg/kg, route oral; settings: in vivo
NCI-H460 = test: Antitumor activity against human H460 cells expressing K-Ras Q61H mutant xenografted in nude mouse assessed as tumor growth inhibition at 100 mg/kg, po bid; format: functional; settings: read-out: GI
[2] = Antitumor activity against human LOX cells expressing B-Raf V600E mutant xenografted in nude mouse assessed as tumor growth inhibition at 25 mg/kg, po bid; format: functional; settings: read-out: GI
[3] = molecular target: T1, Dual specificity mitogen-activated protein kinase kinase; MEK1/2 (Homo sapiens) (UniProt P36507+Q02750); settings: HT-29, 2 to 10 uM
Description: Inhibition of MEK1/2 phosphorylation in human HT-29 cells at 2 to 10 uM by Western blot analysis

[4] = Plasma concentration in human HT-29 cells expressing B-Raf V600E mutant xenografted nude mouse at 100 mg/kg, po after 12 hrs; format: ADME, organism-based; set-up: dose 100 mg/kg, route oral
[5] = Drug level in human HT-29 cells expressing B-Raf V600E mutant xenografted nude mouse tumor at 100 mg/kg, po after 12 hrs; format: ADME, organism-based, Neoplasm; set-up: dose 100 mg/kg, route oral; settings: read-out: Drug uptake
[6] = Cmax in human MIAPaCa2 cells expressing K-Ras G12C mutant xenografted nude mouse at 50 mg/kg, po bid; format: ADME, organism-based, MIA PaCa-2; set-up: dose 50 mg/kg, route oral; settings: in vivo
Mus musculus [7] = test: Average drug concentration in human LOX cells expressing B-Raf V600E mutant xenografted nude mouse plasma at 6.25 mg/kg, po bid; format: ADME, organism-based; set-up: dose 6.25 mg/kg, route oral; settings: in vivo
Mus musculus [8] = test: Average drug concentration in human HT-29 cells expressing B-Raf V600E mutant xenografted nude mouse plasma at 50 mg/kg, po bid; format: ADME, organism-based; set-up: dose 50 mg/kg, route oral; settings: in vivo
Mus musculus [9] = test: Inhibition of MEK-mediated ERK phosphorylation in tumor of human HT-29 cells expressing B-Raf V600E mutant xenografted nude mouse at 100 mg/kg, po after 4 hrs by Western blot analysis relative to control; format: functional; settings: HT-29, 4 h
[10] = Drug level in human HT-29 cells expressing B-Raf V600E mutant xenografted nude mouse tumor at 100 mg/kg, po after 2 hrs; format: ADME, organism-based, Neoplasm; set-up: dose 100 mg/kg, route oral; settings: read-out: Drug uptake
[11] = AUC (0 to 12 hrs) in human H460 cells expressing K-Ras Q61H mutant xenografted nude mouse at 50 mg/kg, po bid; format: ADME, organism-based; set-up: time < 12 hr, dose 50 mg/kg, route oral; settings: in vivo
[12] = molecular target: T1, Dual specificity mitogen-activated protein kinase kinase; MEK1/2 (Homo sapiens); settings: HT-29, 2 to 10 uM; remark: listed apart in the source
Description: Inhibition of MEK1/2 in human HT-29 cells assessed as inhibition of ERK1/2 phosphorylation at 2 to 10 uM by Western blot analysis

Mus musculus [13] = test: Inhibition of MEK-mediated ERK phosphorylation in tumor of human LOX cells expressing B-Raf V600E mutant xenografted nude mouse at 100 mg/kg, po after 8 hrs by Western blot analysis relative to control; format: functional
Mus musculus [14] = test: Inhibition of MEK-mediated ERK phosphorylation in tumor of human HT-29 cells expressing B-Raf V600E mutant xenografted nude mouse at 100 mg/kg, po after 2 hrs by Western blot analysis relative to control; format: functional; settings: HT-29, 2 h

T1 sequence (P36507 whole entry, looked up): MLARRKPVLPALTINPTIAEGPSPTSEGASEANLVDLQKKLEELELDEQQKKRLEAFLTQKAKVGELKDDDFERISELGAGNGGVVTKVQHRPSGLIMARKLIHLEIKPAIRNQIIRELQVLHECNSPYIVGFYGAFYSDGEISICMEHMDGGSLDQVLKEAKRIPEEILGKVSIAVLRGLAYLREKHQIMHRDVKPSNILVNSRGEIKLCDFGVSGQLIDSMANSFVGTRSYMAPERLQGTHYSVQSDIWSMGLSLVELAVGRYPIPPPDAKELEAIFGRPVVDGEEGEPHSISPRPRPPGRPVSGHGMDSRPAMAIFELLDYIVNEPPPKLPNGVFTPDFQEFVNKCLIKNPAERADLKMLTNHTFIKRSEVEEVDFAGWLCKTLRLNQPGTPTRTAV
T1 sequence (Q02750 whole entry, looked up): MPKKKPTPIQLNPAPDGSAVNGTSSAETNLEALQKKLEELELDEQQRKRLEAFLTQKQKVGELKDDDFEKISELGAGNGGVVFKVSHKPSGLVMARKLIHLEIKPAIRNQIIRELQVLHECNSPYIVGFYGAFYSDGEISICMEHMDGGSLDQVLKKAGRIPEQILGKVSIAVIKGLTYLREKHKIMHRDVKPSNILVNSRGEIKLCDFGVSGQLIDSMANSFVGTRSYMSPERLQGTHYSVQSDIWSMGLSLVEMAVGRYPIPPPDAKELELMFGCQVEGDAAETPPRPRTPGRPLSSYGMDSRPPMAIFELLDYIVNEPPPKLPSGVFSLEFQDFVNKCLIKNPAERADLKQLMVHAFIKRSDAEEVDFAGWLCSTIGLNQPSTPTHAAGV

**Q.** What does the source list for `C[C@@H](c1ccccc1)[C@@H](C(=O)Nc1ccc(I)cc1F)N1C(=O)N[C@H](c2ccc(OC[C@H](O)CO)cc2)C1=O`?
**A.** inhibition in vivo at 25 mg/kg (HT-29): 65%; Cave (Mus musculus [1]): 1530 ng/mL; inhibition in vivo at 100 mg/kg (NCI-H460): 90%; inhibition in vivo at 25 mg/kg [2]: > 100%; inhibition [3]: Active; concentration at 12 h [4]: 195 ng/mL; concentration at 12 h [5]: 321 ng/g; Cmax [6]: 5240 ng/mL; Cave (Mus musculus [7]): 331 ng/mL; Cave (Mus musculus [8]): 609 ng/mL; inhibition in vivo at 100 mg/kg (Mus musculus [9]): 79%; concentration at 2 h [10]: 2090 ng/g; AUC at 12 h [11]: 23300 ng·h/mL; inhibition [12]: Active; inhibition in vivo at 100 mg/kg (Mus musculus [13]): 48%; inhibition in vivo at 100 mg/kg (Mus musculus [14]): 76%
